Results reported in paper PMC8105311 (Scientific Reports, 2021).

Assays:
[1] = Solubility of L-carnitine in water; format: physicochemical
[2] = 195Pt NMR of ligand exchange of cisplatin in solution; format: physicochemical; details: for Detection of Pt species by 195Pt NMR: DMSO aq. equimolar to 50 wt% TMG aq., day 1
Method: ^195Pt NMR spectrometry and mass spectrometry
After leaving it at room temperature, the resulting solution was measured at Day 5 and Day 10. We used co-axial tubes and K2[PtCl4] in D2O (for adjusting shim) was in the inner tube.
(1 mL) was prepared and left for one day. The resulting solution was measured by ^195Pt NMR (Day 1; 25,000 scans). NaCl (80 mg) was added and stirred. The solution was left and measured (Day2–4; 25,000 scans). In the case of DMSO aq., the concentration of DMSO uesd was adjusted to be equimolar to 50 wt% TMG aq.

[3] = cited from earlier work
mice = tested on: mice; parameters: method as in PMID 25488130; details: cited from earlier work
MDA-MB-231 cells = assay: Anticancer efficiency of cisplatin (cell viability, CellTiter 96 Aqueous One Solution); format: cell-based, human; details: final 0.1-100 µM
Method: MDA-MB-231 human breast cancer cell was kindly gifted from Prof. Erik Sahai (The Francis-Crick Institute, UK) and described previously^7. The cells were grown and maintained as monolayer cultures in 5% CO2 and humidified atmosphere at 37 °C, using Dulbecco's modified Eagle medium (high glucose with L-glutamine and phenol red, Fujiﬁlm Wako Pure Chemical Corporation), 10 vol% fetal bovine serum (Sigma-Aldrich Co., Llc.), and penicillin–streptomycin solution (×100; Fujiﬁlm Wako Pure Chemical Corporation). The cells were subcultured every 3–5 days by using trypsin solution (0.5w/v% trypsin—5.3mmol/L EDTA·4Na solution without phenol red (×10), Fujiﬁlm Wako Pure Chemical Corporation).
Anticancer efficiency of cisplatin
MDA-MB-231 cells (5,000 cells/well) were seeded to each well of a 96-well plate and then pre-cultured for 24 h. […] The solutions were added to the media to be 100, 10, 1, and 0.1 µM. The cells were cultured for 72 h and the cell viability was investigated with CellTiter 96® Aqueous One Solution.
(§1) The platinating agent (10 mM) was added to the 50 wt% TMG aq. (1 mL) and solubilized by stirring for 1 h. The resulting solution was left for more than one day. The resulting solution was freeze-dried and a pale yellow powder was obtained.

[4] = Dissolution time of cisplatin/TMG powder vs native cisplatin powder; format: physicochemical; details: native cisplatin powder in 50 wt% TMG aq.
Method: as §1
The yellow precipitates are undissolved cisplatin.

C[N+](C)(C)C[C@H](O)CC(=O)[O-] [L-carnitine]
Solubility in water [1]: approximately 70 wt%

[Pt(NH3)Cl(DMSO)]^+
Detection of Pt species by 195Pt NMR [2]: detected
Reversion to Pt(NH3)2Cl2 in the presence of NaCl ([2]; DMSO aq., after NaCl addition): scarcely reverted to Pt(NH3)2Cl2

O [water]
Kamlet-Taft β value (hydrogen bond basicity) [3]: around 0.15

C[N+](C)(C)CC(=O)O [TMG, Trimethylglycine]
Effect on nephrotoxicity when cisplatin is administered (mice): reduces nephrotoxicity

C[S+](C)[O-] [DMSO, dimethyl sulfoxide]
Kamlet-Taft β value (hydrogen bond basicity) [3]: 0.83

N.N.O.[Cl][Pt+] [[Pt(NH3)2Cl(H2O)]^+]
Reversion to Pt(NH3)2Cl2 in the presence of NaCl ([2]; 50 wt% TMG aq., after NaCl addition): reverted to Pt(NH3)2Cl2
Ratio of Pt species by 195Pt NMR ([2]; 50 wt% TMG aq., after NaCl addition, day 2): 2 mol%
Ratio of Pt species by 195Pt NMR ([2]; 50 wt% TMG aq., after NaCl addition, day 3): 0 mol%
Ratio of Pt species by 195Pt NMR ([2]; 50 wt% TMG aq., after NaCl addition, day 4): 0 mol%
Ratio of Pt species by 195Pt NMR ([2]; 50 wt% TMG aq., left for 24 h (day 1), before NaCl addition): 17 mol%
Detection of Pt species by 195Pt NMR [2]: not detected

N.N.[Cl][Pt][Cl] [cisplatin]
MDA-MB-231 cell viability (MDA-MB-231 cells; 10 mM cisplatin stock in 50 wt% TMG aq., 72 h): decreased in a dose-dependent manner
Anticancer effect (MDA-MB-231 cell viability) (MDA-MB-231 cells; cisplatin stock in 50 wt% L-carnitine aq., 72 h): retained the anticancer effect
Anticancer effect (MDA-MB-231 cell viability) (MDA-MB-231 cells; cisplatin stock in DMSO, 72 h): abolished
MDA-MB-231 cell viability (MDA-MB-231 cells; solution regenerated with water from freeze-dried cisplatin/TMG powder (10 mM cisplatin in 50 wt% TMG aq.)): killed MDA-MB-231 cells in a dose-dependent manner
Ligand exchange (195Pt NMR) ([2]; 50 wt% TMG aq., immediately after dissolution): ligand exchange did not occur
Chloride ligand exchanged ([2]; 50 wt% TMG aq., room temperature, after 10 days): 66 mol%
Integral value of the signal of the emerging compound (Pt(NH3)2Cl2 signal fixed as 1.0) ([2]; 50 wt% TMG aq., room temperature, day 5): 1.25
Integral value of the signal of the emerging compound (Pt(NH3)2Cl2 signal fixed as 1.0) ([2]; 50 wt% TMG aq., room temperature, day 10): 1.90
Detection of Pt species by 195Pt NMR [2]: not detected
Time required for dissolution [4]: approximately 1 h
